Laboratory results reported in ChEMBL document CHEMBL1201862, “PubChem BioAssay data set” (2004).
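Tested at 5 concentrations; 48 h exposure; 96-well plates; endpoints linearly interpolated, else capped at highest concentration. GI50 = concentration required for 50% inhibition of growth.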 Calls of active or inactive are those of the source. No stated cut-off is given here; in the data, active = GI50 up to about 1.1 µM and inactive = higher.

Key:
Assay in all cases: growth of human tumour cells (NCI), 48 h
DLD-1 = system: DLD-1
DMS-114 = system: DMS-114
KM-20L2 = system: KM-20L2
LXFL 529 = system: LXFL 529
SNB-78 = system: SNB-78
XF498 = system: XF498
M19-MEL = system: M19-MEL
HOP-18 = system: HOP-18
RXF 631 = system: RXF 631

Measured: GI50

N#CCCN(c1ccc(/C=C2\N=C(Cc3ccccc3)OC2=O)cc1)S(=O)(=O)c1ccccc1
inactive: DLD-1 > 100 µM | DMS-114 > 100 µM | KM-20L2 > 100 µM | LXFL 529 > 100 µM | SNB-78 > 100 µM | XF498 > 100 µM

C/C(CC(=O)Nc1cccc([N+](=O)[O-])c1)=N\NC(=O)C[n+]1ccccc1
inactive: DLD-1 > 100 µM | DMS-114 > 100 µM | KM-20L2 > 100 µM | LXFL 529 > 100 µM | M19-MEL > 100 µM | SNB-78 > 100 µM | XF498 > 100 µM

C/C(=N\N(C)C)c1sc(-n2nc(-c3ccccc3)cc2-c2ccccc2)nc1C
inactive: DLD-1 > 100 µM | DMS-114 72.6 µM | HOP-18 > 100 µM | KM-20L2 > 100 µM | LXFL 529 > 100 µM | M19-MEL > 100 µM | RXF 631 43.9 µM | SNB-78 > 100 µM | XF498 > 100 µM

O=C(Nc1cc(Cl)ccc1Cl)c1cc2cccc(Br)c2oc1=O
inactive: DLD-1 > 100 µM | DMS-114 > 100 µM | HOP-18 > 100 µM | KM-20L2 > 100 µM | M19-MEL > 100 µM | XF498 21.9 µM

O=C1CCC(=O)c2cc(Br)ccc2N1
inactive: DLD-1 > 100 µM | DMS-114 > 90.6 µM | HOP-18 > 100 µM | KM-20L2 > 100 µM | LXFL 529 > 100 µM | M19-MEL > 70.5 µM | RXF 631 > 100 µM | SNB-78 > 100 µM | XF498 > 100 µM

COc1ccc(-n2/c(=N/C(=S)N(C)C)ss/c2=N\C(=S)N(C)C)cc1
inactive: DMS-114 7.36 µM | KM-20L2 27.7 µM | M19-MEL 7.43 µM | SNB-78 39.4 µM

CC1CCC2c3c([nH]c4ccccc34)C3C(=O)N(c4ccccc4)C(=O)C3C2C1 (stereo not drawn)
inactive: DLD-1 > 250 µM | DMS-114 45.5 µM | HOP-18 18.9 µM | KM-20L2 > 250 µM | LXFL 529 > 250 µM | M19-MEL > 250 µM | RXF 631 89.1 µM | SNB-78 10.6 µM | XF498 1.82 µM

NNC(=O)CCC(=O)Nc1ccc(Cl)cc1Cl
inactive: DLD-1 > 100 µM | DMS-114 > 100 µM | KM-20L2 > 100 µM | LXFL 529 29.7 µM | M19-MEL > 100 µM | RXF 631 > 100 µM | SNB-78 > 100 µM | XF498 > 100 µM

CCOC(=O)C(/C(=N\NC(=O)OC)C(=O)Nc1cc(OC)ccc1OC)c1cnc2ccccc2n1 (stereo not drawn)
inactive: DLD-1 > 100 µM | DMS-114 > 100 µM | HOP-18 85.9 µM | LXFL 529 > 100 µM | M19-MEL > 100 µM | SNB-78 > 100 µM | XF498 > 100 µM

COC(=O)N/N=C/c1oc(-c2cccc([N+](=O)[O-])c2)c(-c2cccc([N+](=O)[O-])c2)c1[N+](=O)[O-]
inactive: DLD-1 > 100 µM | HOP-18 > 100 µM | KM-20L2 > 100 µM | LXFL 529 > 100 µM | M19-MEL > 100 µM | XF498 > 100 µM

CC(=O)Nc1ccc(/C=C/C(=O)c2sc(-c3cccnc3)nc2C)cc1
inactive: DLD-1 > 100 µM | DMS-114 > 100 µM | HOP-18 > 100 µM | KM-20L2 > 100 µM | M19-MEL > 100 µM | SNB-78 > 100 µM

CC(=O)NC(CCCCN(Cc1ccccc1)C(=O)N(CCCl)N=O)C(=O)NCc1ccccc1 (stereo not drawn)
inactive: DLD-1 > 47.9 µM | DMS-114 > 100 µM | HOP-18 25.9 µM | KM-20L2 > 52.8 µM | LXFL 529 > 100 µM | M19-MEL > 67.3 µM | SNB-78 > 100 µM | XF498 > 34.4 µM

O=C(CN1CCN(c2cccc(Cl)c2)CC1)N1CCc2c([nH]c3ccccc23)C1c1cccnc1 (stereo not drawn)
inactive: DLD-1 7.31 µM | DMS-114 4.25 µM | HOP-18 33.2 µM | KM-20L2 3 µM | M19-MEL 7.76 µM | RXF 631 7.31 µM | SNB-78 18.3 µM | XF498 12.2 µM
